# Square brackets hold non-standard residues; d marks the D form. Peptide text beside a SMILES is read from it.
# Legend:
# [1] = system: experimental renal ischemia/reperfusion in rats; assay: Renal ischemia/reperfusion (clamping both renal pedicles 40 min), Wistar rats; type: in vivo, rat; settings: 2 mg/kg IV one hour after clamping; 24 h following ischemia
# Method: Renal ischemia will be induced by clamping both renal pedicles with atraumatic clamp (induction of necropathy). One unique dose of the JNK inhibitor of SEQ ID NO: 172 (2000 μg/kg) will be administered intravenously (IV) into the tail vein on Day 0, one hour after clamping period (after reperfusion) both renal pedicles with atraumatic clamp. The administration volume will be 2 ml/kg. Heparin (5000 IU/kg) will be administered intraperitoneally 1 hour before clamping.
# Each day, the general behavior and the appearance of all animals is observed. […] For the evaluation of the renal function, serum creatinine ([…]) or urea concentrations (mmol/mL) are measured with the appropriate kits (Bayer Healthcare AG, Leverkusen, Germany). […]
# Twenty-six (26) male Wistar rats (age 5-6 weeks) were used in this study (divided into 2 groups of 10 rats and 1 group of 6 rats). […] The health of the animals was monitored (moribund animals, abnormal important loss of weight, major intolerance of the substance, etc. . . . ). […]
# For evaluation of renal function, blood was collected from the tail vein at 24 hours after reperfusion. Serum creatinine ([…]) and urea concentrations (mmol/mL) were measured using appropriate kits (Bayer Healthcare AG, Leverkusen, Germany). […]
# rat whole blood = assay: PMA+ionomycin-induced IL-2 release in rat whole blood; type: cell-based; settings: 10 μM; three activator concentrations, 4 h
# Method: FIG. 17 Dose dependent inhibition of IL-2 release in rat whole blood stimulated with PMA+ionomycin. JNK inhibitor with SEQ ID NO: 172 was added at three different concentrations, namely 1, 3 and 10 μM 1 h before stimulation with PMA+ionomycin. Three doses of activators were added (25/500 ng/mL, 50/750 ng/mL and 50/1000 ng/mL) for 4 h. IL-2 release was assessed in supernatant.
# Whole blood is collected from anesthetized rat or human healthy volunteers using a venipuncture connected to a pre-labeled vacuum tube containing sodium citrate. Tubes are gently mixed by inversion 7-8 times; and are then kept at RT until stimulation. JNK inhibitor of SEQ ID NO: 172 is prepared 6 times concentrated in PBS, and 30 μl/well of mix is added into 96-well plate. Whole blood is diluted by 1:2 in PBS and 120 μl of diluted blood is added in each well where either PBS alone or JNK inhibitor of SEQ ID NO: 172 has been previously added. Whole blood is incubated at 37° C.; 85 rpm (Stuart Orbital incubator SI500) for 60 min. Activators (LPS) are the prepared, 30 μl/well of LPS, 6 times concentrated. […] Cytokine (IL-6, IL-2, IFNγ and TNFα) were then measured using standard Elisa kits (e.g. from R&D Systems: DuoSet Elisas; or from BD Biosciences: BD Opteia Set Elisa). Results are expressed as pg/ml of supernatant of the measured cytokine. […]
# [2] = system: acute CYP-induced cystitis in female Sprague-Dawley rats; assay: Cyclophosphamide-induced acute cystitis, intravesical treatment, visceral pain and bladder inflammation; type: in vivo, rat; settings: 50 mg/mL, i.ves.; 24 h after CYP
# Method: This preclinical model is well-used to test therapeutic approaches for the treatment of interstitial cystitis/painful bladder syndrome (IC/PBS).
# Animals were acclimatized to the laboratory conditions for at least 3 days before the start of any experiments. The animals were allocated to the following four experimental groups (n=10 animals per group):
# To induce acute cystitis, a single i.p. injection of CYP at a dose of 150 mg/kg in a final volume of 5 mL/kg was performed. Control rats received physiological saline under the same experimental conditions as CYP (final volume of 5 mL/kg, i.p.).
# On the day of each experiment, weight of rats was recorded.
# Standardized conditions including fixed time-of-day (a.m. to minimize the potential circadian variations in the behaviours responses) and single-experimenter testing of all animals were applied to minimize variability behavior-based pain testing. Visceral pain including allodynia and hyperalgesia was evaluated by applying to the lower abdomen, close to the urinary bladder, a set of 8 calibrated von Frey filaments of increasing forces (1, 2, 4, 6, 8, 10, 26 and 60 g) with an interstimulus interval of 5 seconds. Prior testing, the abdominal area designed for mechanical stimulation of each animal was shaved. Animals were then placed on a raised wire mesh floor under individual transparent Plexiglas box and acclimatized for at least 30 minutes before starting the von Frey test. Filaments were then applied 1-2 seconds through the mesh floor with enough strength to cause the filament to slightly bend. Each filament was tested 3 times. Care was taken to stimulate different areas within the lower abdominal region in the vicinity of the urinary bladder to avoid desensitization.
# Nociceptive behaviors were scored for each animal and each filament as follows:
# The study design is schematically shown in FIG. 50 A. Birefly, acute cystitis was induced by CYP injection (i.p.) at Do (as described above).
# Urinary bladders were rapidly collected and cleaned from lipoid tissue. Urinary bladders were weighed, cut at the bladder neck as well as oedema and haemorrhage scoring was performed (see table below). Finally, wall thickness was measured using a digital caliper by placing the bladder wall between the two outside jaws.
smiles,measurement,setting,value
"CC(C)C[C@H](NC(=O)[C@H](CC(N)=O)NC(=O)[C@H](CC(C)C)NC(=O)[C@@H](NC(=O)[C@@H](C)NC(=O)[C@@H]1CCCN1C(=O)[C@H](CCCNC(=N)N)NC(=O)[C@@H](CCCCN)NC(=O)[C@@H]1CCCN1C(=O)[C@H](CCCNC(=N)N)NC(=O)[C@@H](CCCNC(=N)N)NC(=O)[C@H](CCCNC(=N)N)NC(=O)[C@H](CCCNC(=N)N)NC(=O)[C@H](CCC(N)=O)NC(=O)[C@@H](CCCNC(=N)N)NC(=O)[C@H](CCCNC(=N)N)NC(=O)[C@H](CCCCN)NC(=O)[C@H](CCCCN)NC(=O)[C@H](N)CCCNC(=N)N)[C@@H](C)O)C(=O)N[C@H](Cc1ccccc1)C(N)=O [SEQ ID NO: 172, rKKRrQRRrRPkRPaTLNLf] (H-[dR]KKR[dR]QRR[dR]RP[dK]RP[dA]TLNL[dF]-NH2; N-terminus assumed)",serum creatinine relative to untreated ischemic rats,[1],lower serum creatinine
same,urea relative to untreated ischemic rats,[1],lower urea
same,PMA-iono-induced IL-2 release,rat whole blood,did efficiently reduce
same,AUC 1-8 g (allodynia) vs vehicle,[2],significantly decreased
same,AUC 8-60 g (hyperalgesia) vs vehicle,[2],reduced
same,haemorrhage scores vs vehicle,[2],no significant change
same,nociceptive scores vs vehicle,[2],significantly decreased
same,nociceptive threshold vs vehicle,[2],significantly increased
same,oedema scores vs vehicle,[2],significant decrease
same,urinary bladder wall thickness vs vehicle,[2],significantly decreased

# Reference: US11331364B2, “Use for JNK inhibitor molecules for treatment of various diseases” (Xigen Inflammation Ltd., priority 2014, dated 2022)
